Experiments:
Format in all cases: physicochemical
[1] = Dissolution of compressed tablets in water (Example 10); conditions: compressed tablets of ivermectin alone
Protocol: The dissolution of said tablets to yield a clear infinitely diluable aqueous solution of ivermectin is very rapid (15 minutes with gentle agitation).

[2] = Dissolution rate, solution/adsorption products versus comparison (Example 11); conditions: added alone or dissolved in glycerol formal to an aqueous surfactant solution
From the text: 37 parts of each of the solutions produced in Examples 5 and 6 is dry blended with I part of Accurel powder (50-75% void space). This mixture is then blended with 12 parts of Cab-O-Sil to produce a dry free-flowing powder which may be used as such or tableted as in Example 10.

[3] = Dissolution of thermoplastic solids in deionized distilled water (Example 12); conditions: ivermectin into an aqueous solution of an equivalent amount of thermoplastic surfactant
[4] = Solubility in deionized distilled water (Example 14)
Protocol: A solution of 5% (50 mg/ml) w/v ivermectin is prepared by dissolving the product in Examples 1-5 and 7-9 in sufficient deionized distilled water. A mixture of an equivalent amount of ivermectin in deonized distilled water is only marginally soluble (1-4 mcg/ml). Therefore, the solubility of a poorly water soluble drug is enhanced (50,000 mcg/ml).

Substance: ivermectin
- time within which tablets do not dissolve or disintegrate [1]: > 3 days
- dissolution rates compared with the invention [2]: less than those observed with the invention
- dissolution rate compared with the method of the invention [3]: significantly slower
- solubility [4]: 1 to 4 µg/mL

— patent publication EP0179583A1, “A system for enhancing the water dissolution rate and solubility of poorly soluble drugs” (Merck & Co., Inc., priority 1984, dated 1986)
